Assay results: US10278965B2, “Method of detecting cancer stem cell, method of screening cancer stem cell, and method of inhibiting cancer stem cell” (CANON KABUSHIKI KAISHA, priority 2012, dated 2019)

What was measured:
[1] = Measurement of fluorescent property of compound; assay type: physicochemical; conditions: 5 μM DMSO solution
Protocol: The excitation wavelength and fluorescence wavelength of the compound were measured by a FL4500 spectrofluorometric measuring machine manufactured by Hitachi High-Technologies Corporation.

[2] = test system: Human chronic myelocytic leukemia cells, K562, ALDH (+) fraction (cancer stem cells); test: Cancer stem-cell selective inhibitory action against chronic myelocytic leukemia cells, ALDH (+) fraction; assay type: cell-based; conditions: 24 hours
Protocol: Human chronic myelocytic leukemia cells, K562, were pre-cultured in RPMI1640 medium containing 10% FBS at 37° C. in a 5% CO2 ambient. Then, a fraction containing 80% or more of cancer stem cells was extracted by use of a cancer stem cell marker, ALDEFLUOR reagent (manufactured by VERITAS Corporation) and FACSAria flow cytometry (manufactured by Nippon Becton, Dickinson and Company). […] The cultured cells were analyzed for viable cell count according to CellTiter-Glo Luminescent Cell Viability Assay (manufactured by Promega KK.). […] Note that hereinafter, an ALDEFLUOR reagent positive fraction (deemed as cancer stem cells) is represented by ALDH (+), whereas an ALDEFLUOR reagent negative fraction (not deemed as cancer stem cells) is represented by ALDH (−), in some cases.
Further, the growth suppressive effect of cancer stem cells was evaluated based on the following criteria. Note that the growth rate in Examples is a value obtained by dividing viable cell count after culture by the number of cells at the initiation time of culture.

[3] = test system: Prostatic cancer cells, PC-3; test: Cancer cell inhibitory (growth suppressive) action against prostatic cancer cells, CellTiter-Glo viable cell count; assay type: cell-based; conditions: PC-3, 10 μg/mL, 24 hours
Protocol: Prostatic cancer cells, PC-3, were pre-cultured in RPMI1640 medium containing 10% FBS at 37° C. in a 5% CO2 ambient. Thereafter, 4,000 cells were seeded per well of a 96-well plate and further cultured for 24 hours. Subsequently, Compound (1) was added to the medium so as to obtain a final concentration of 10 μg/mL and cultured at 37° C. for 24 hours in a 5% CO2 ambient. The cultured cells were analyzed for viable cell count according to Cell Titer-Glo Luminescent Cell Viability Assay (manufactured by Promega KK.).
Viable cell count was analyzed in the same manner as in Experimental Example 24 except that Compound (1) of Experimental Example 24 was changed to each compound shown in Table 2.
Viable cell count was analyzed in the same manner as in Experimental Example 24 except that Compound (1) of Experimental Example 24 was changed to each of Comparative compounds 1 to 4, to obtain growth rates.
Note that the growth rate used in Examples refers to the rate (expressed by percentage) of viable cell count after culture relative to the number of cells at the initiation of cell culture. Evaluation criteria are the same as in the above experiments.

[4] = test system: Human pancreas cancer cells, KLM-1; test: Cancer cell inhibitory (growth suppressive) action against pancreatic cancer cells, CellTiter-Glo viable cell count; conditions: KLM-1, 10 μg/mL, 24 hours
Protocol: Human pancreas cancer cells, KLM-1, were pre-cultured in RPMI1640 medium containing 10% FBS at 37° C. in a 5% CO2 ambient. Thereafter, 4,000 cells were seeded per well of a 96-well plate and further cultured for 24 hours. […] The cultured cells were analyzed for viable cell count according to CellTiter-Glo Luminescent Cell Viability Assay (manufactured by Promega KK.).
Evaluation of cancer cell inhibition against the pancreatic cancer cells (KLM-1) (growth suppression) was made based on the following criteria. Note that the growth rate used in Examples refers to the rate (expressed by percentage) of viable cell count after culture relative to the number of cells at the initiation of cell culture.

Structure (SMILES)	Excitation wavelength λex [1] [nm]	Fluorescence wavelength λem [1] [nm]	ALDH(+) Superiority evaluation ([2]; K562, 1 μg/ml)	ALDH(+)/ALDH(−) ([2]; K562, 1 μg/ml)	ALDH(+) Superiority evaluation ([2]; K562, 10 μg/ml)	ALDH(+)/ALDH(−) ([2]; K562, 10 μg/ml)	Cancer cell growth rate (%) [3] [%]	Evaluation (cancer cell growth rate) [3]	Cancer cell growth rate (%) [4] [%]	Evaluation (cancer cell growth rate) [4]
CN1/C(=C/C=C2\CCCC(/C=C/C3=[N+](C)c4ccccc4C3(C)C)=C2Sc2ccccc2)C(C)(C)c2ccccc21 [Compound 59]	804	520	A (The value of the growth rate of ALDH (+)/the growth rate of ALDH (−) is less than 0.8)	0.67	A (The value of the growth rate of ALDH (+)/the growth rate of ALDH (−) is less than 0.8)	0.22				
O=C(O)CN1/C(=C\C2=C(Cl)C(=C/c3sc4ccccc4[n+]3CC(=O)O)/CCC2)Sc2ccccc21 [Comparative compound 3, reference compound]			C (The value of the growth rate of ALDH (+)/the growth rate of ALDH (−) is 0.95 or more)	0.79			101	C (Cancer cell growth rate is 50% or more)	93.0	C (Cancer cell growth rate is 50% or more)
CN1/C(=C\C=C\C2=[N+](C)c3ccc4ccccc4c3C2(C)C)C(C)(C)c2c1ccc1ccccc21 [Compound 20]							13.1	A (Cancer cell growth rate is less than 20%)	1.2	A (Cancer cell growth rate is less than 20%)
CCCCCCCN1/C(=C\C=C\c2oc3ccccc3[n+]2CCCCCCC)Oc2ccccc21 [Compound 18]	492	510			A (The value of the growth rate of ALDH (+)/the growth rate of ALDH (−) is less than 0.8)	0.29				
CCN1/C(=C\C=C\c2ccc3ccccc3[n+]2CC)C=Cc2ccccc21.[I-] [Compound 47]	615	637					13.8	A (Cancer cell growth rate is less than 20%)	8.6	A (Cancer cell growth rate is less than 20%)
CCN1/C(=C/C=C/C=C/C=C/C2=[N+](CC)c3ccccc3C23CCCCC3)C2(CCCCC2)c2ccccc21 [Compound 31]									30.5	B (Cancer cell growth rate is 20% or more and less than 50%)
CCOC(=O)C1(C(=O)OCC)CC(/C=C/C2=[N+](CC)c3ccccc3C2(C)C)=CC(=C/C=C2/N(CC)c3ccccc3C2(C)C)/C1 [Compound 37]	650	770							4.8	A (Cancer cell growth rate is less than 20%)
CC(C)CCN1/C(=C/C=C/C=C/C2=[N+](CCC(C)C)c3ccc4ccccc4c3C2(C)C)C(C)(C)c2c1ccc1ccccc21 [Compound 55]	688	715			A (The value of the growth rate of ALDH (+)/the growth rate of ALDH (−) is less than 0.8)	0.33				
CCCCN1/C(=C/C=C2\CCCC(/C=C/C3=[N+](CCCC)c4ccccc4C3(C)C)=C2c2ccccc2)C(C)(C)c2ccccc21 [Compound 54]	774	800			A (The value of the growth rate of ALDH (+)/the growth rate of ALDH (−) is less than 0.8)	0.50				
CCC(=C\c1oc2ccc(-c3ccccc3)cc2[n+]1CC)/C=C1/Oc2ccc(-c3ccccc3)cc2N1CC [Compound 57]					B (The value of the growth rate of ALDH (+)/the growth rate of ALDH (−) is 0.8 or more and less than 0.95)	0.81				
CCN1\C(=C/C=C/C=C/c2oc3ccccc3[n+]2CC)Oc2ccccc21 [Compound 28]	589	614	B (The value of the growth rate of ALDH (+)/the growth rate of ALDH (−) is 0.8 or more and less than 0.95)	0.83	A (The value of the growth rate of ALDH (+)/the growth rate of ALDH (−) is less than 0.8)	0.69				
CCC(/C=C1\Oc2ccccc2N1CC)=C\c1oc2ccccc2[n+]1CC [Compound 56]					A (The value of the growth rate of ALDH (+)/the growth rate of ALDH (−) is less than 0.8)	0.65				
CCC(=C\c1sc2c3ccccc3ccc2[n+]1CC)/C=C1/Sc2c(ccc3ccccc23)N1CC.[I-] [Compound 7]	344	381					15.3	A (Cancer cell growth rate is less than 20%)	13.0	A (Cancer cell growth rate is less than 20%)
CCN1C=C/C(=C/C=C/c2ccc3ccccc3[n+]2CC)c2ccccc21.[I-] [Compound 45]	665	681							28.5	B (Cancer cell growth rate is 20% or more and less than 50%)
CCN1C=C/C(=C/C=C/c2cc[n+](CC)c3ccccc23)c2ccccc21 [Compound 46]	679	715					17.7	A (Cancer cell growth rate is less than 20%)	16.7	A (Cancer cell growth rate is less than 20%)
CCCC[N+]1=C(/C=C/C2=C(Cl)C(=C/C=C3/N(C)c4ccccc4C3(C)C)/CCC2)C(C)(C)c2c1ccc1ccccc21 [Compound 51]					A (The value of the growth rate of ALDH (+)/the growth rate of ALDH (−) is less than 0.8)	0.27				
CN1/C(=C/C=C/C=C/C2=[N+](C)c3ccc4ccccc4c3C2(C)C)C(C)(C)c2cc(Cl)ccc21 [Compound 60]	670	696			A (The value of the growth rate of ALDH (+)/the growth rate of ALDH (−) is less than 0.8)	0.34				
CCN1/C(=C/C=C2\CCCC(/C=C/C3=[N+](CC)c4ccc(OC)cc4C3(C)C)=C2Cl)C(C)(C)c2cc(OC)ccc21 [Compound 40]	819	825							14.1	A (Cancer cell growth rate is less than 20%)
CCN1/C(=C/C=C/C=C/C=C/C2=[N+](CC)c3ccccc3C2(C)C)C(C)(C)c2ccccc21 [Compound 32]					A (The value of the growth rate of ALDH (+)/the growth rate of ALDH (−) is less than 0.8)	0.32				
CCC(=C\c1sc2ccc3ccccc3c2[n+]1CC)/C=C1/Sc2ccc3ccccc3c2N1CC [Compound 10]	586	615							13.5	A (Cancer cell growth rate is less than 20%)
